{
  "source": "patent US20240261268A1",
  "about": "“METHODS OF SLOWING AN INCREASE IN BRAIN VENTRICULAR VOLUME” (VANDA PHARMACEUTICALS INC., priority 2022, published 2024)",
  "key": {"[1]": {"test_system": "adult subjects with relapsing MS", "assay": "Phase III study ponesimod 20 mg vs teriflunomide 14 mg: treatment-emergent adverse events (Safety Set)", "procedure": "A prospective, multicenter, randomized, double-blind, active controlled, parallel-group, phase III, superiority study was conducted.\nThe treatment period consisted of an up-titration period (from Day 1 to 14) and a maintenance period (Day 15 until EOT).\nTo reduce the first-dose effect of ponesimod, an up-titration scheme was implemented from Day 1 to Day 14: • Days 1 and 2; 2 mg. • Days 3 and 4; 3 mg. • Days 5 and 6; 4 mg. • Day 7; 5 mg. • Day 8; 6 mg. • Day 9; 7 mg. • Day 10; 8 mg. • Day 11; 9 mg. • Days 12, 13, and 14; 10 mg. • Day 15 until EOT; 20 mg.\nThe Safety Set (SAF) included all randomized subjects who received at least one dose of study treatment. Subjects were analyzed based on actual treatment taken, not randomized treatment."}, "[2]": {"test_system": "adult subjects with relapsing MS", "assay": "12-lead ECG heart rate and first-dose monitoring on Day 1", "format": "in vivo, human", "experimental": "The incidence of treatment-emergent heart rate and rhythm (including hypotension) AESIs on Day 1 was higher in the ponesimod 20 mg arm (2.1%) than in the teriflunomide 14 mg arm (0.4%). However, the overall incidence of first dose AESI on Day 1 was low (2.1%) in ponesimod. None of these events were serious nor led to permanent discontinuation of study treatment. Discharge criteria at 4 hours post-dose were met for ca. 99% of subjects. […] ECG HR effect: nadir at 2 hours post-dose (siponimod—3-4 hours, fingolimod—around by 6 hours). Low incidence of low HR outliers (post-dose HR≤40 bpm), all 3 of them with a pre-treatment HR of <55 bpm, which is a known risk factor for post-dose bradycardia with SIP receptor modulators.\nThe mean heart rate reduction compared to pre-dose reached a maximum for ponesimod 20 mg at 2-hours post dose, −8.7 bpm compared to −1.7 bpm for teriflunomide 14 mg (FIG. 2)."}, "[3]": {"test_system": "adult subjects with relapsing MS", "assay": "Phase III study: premature treatment discontinuation and deaths", "format": "in vivo", "conditions": "ponesimod 20 mg, teriflunomide 14 mg", "experimental": "A total of 1468 subjects were screened. Of those, 1133 subjects were randomized (567 to ponesimod 20 mg and 566 to teriflunomide 14 mg) across 162 sites in 28 countries, and 1131 subjects received at least one dose of study drug. The disposition of subjects is summarized in Table 1 and a summary of reasons (primary reason) for treatment discontinuation are shown in Table 2. Overall treatment and study discontinuation were balanced across both treatment arms. A total of 6.5% and 2.5% of the subjects discontinued due to AEs or tolerability related reasons in ponesimod 20 mg and teriflunomide 14 mg, respectively, while 1.9% and 4.3% discontinued due to efficacy related reasons. There were 2 deaths reported during the study—both on teriflunomide 14 mg."}, "[4]": {"test_system": "adult subjects with relapsing MS", "assay": "MRI-based scaled brain ventricular volume (lateral + 3rd ventricle / ICV)", "format": "in vivo, human", "conditions": "p<0.001 vs baseline, ponesimod n=428, teriflunomide n=427", "excerpt": "Efficacy variable/timepoint: The endpoint was increase in ventricular volume up to the end of study (EOS). All available data up to EOS, regardless of treatment discontinuation was included (ITT approach).\nVentricular Volume (VV) data were obtained from MRI images from patients that participated in the OPTIMUM study. Data were obtained from those patients who had MRI imagines at baseline week 60 and week 108. One pre-requisite was to select only those patients who had all images completed.\nVentricular volume was estimated from MRI images collected at baseline (BL), week 60 and week 108 for 428 subjects treated with ponesimod and 427 with teriflunomide. Lesions were identified using T2-weighted and Proton Density (PD) MRIs. Ventricles were segmented using lesion-filled T1 images using with the longitudinal stream in FreeSurfer 7. For each subject, scaled ventricular volume (V) was computed as the sum of lateral and 3rd ventricle volumes divided by the intracranial volume (ICV) and expressed as a percentage. Average V (V) and average change in V (ΔV) from baseline at weeks 60 and 108 were compared across treatment arms. Ventricular volumes were correlated with Multiple Sclerosis Functional Composite (MSFC), Paced Auditory Serial Addition Test (PASAT), Average Timed 25 Foot Walk (T25FW), Average 9-Hole Peg Test (9-HPT), Single Digit Modality Test (SDMT), FSIQ-RMS and Expanded Disability Score (EDSS)."}, "[5]": {"conditions": "Day 1, ponesimod N=565, teriflunomide N=566, Safety Set"}, "[6]": {"conditions": "ponesimod 20 mg N=565, teriflunomide 14 mg N=566, Safety Set"}, "[7]": {"conditions": "ponesimod 20 mg, teriflunomide 14 mg"}, "[8]": {"conditions": "treatment-emergent, ponesimod 20 mg N=565, teriflunomide 14 mg N=566, Safety Set"}},
  "data": [
    {"smiles": "C/C(O)=C(\\C#N)C(=O)Nc1ccc(C(F)(F)F)cc1", "note": "[teriflunomide, reference compound]", "values": [
      {"measurement": "Incidence of treatment-emergent heart rate and rhythm (including hypotension) AESIs on Day 1", "setting": "[1]; Day 1, ponesimod 20 mg arm, teriflunomide 14 mg arm", "result": 0.4, "unit": "%"},
      {"measurement": "AESI effect on heart rate and rhythm (including hypotension) on Day 1: Subjects with at least one AE", "setting": "[1]; [5]", "result": "2(0.4) n (%)"},
      {"measurement": "AESI heart rate and rhythm on Day 1, PT: Atrioventricular block first degree", "setting": "[1]; [5]", "result": "0 n (%)"},
      {"measurement": "AESI heart rate and rhythm on Day 1, PT: Bradycardia", "setting": "[1]; [5]", "result": "0 n (%)"},
      {"measurement": "AESI heart rate and rhythm on Day 1, PT: Bundle branch block left", "setting": "[1]; [5]", "result": "0 n (%)"},
      {"measurement": "AESI heart rate and rhythm on Day 1, PT: Bundle branch block right", "setting": "[1]; [5]", "result": "0 n (%)"},
      {"measurement": "AESI heart rate and rhythm on Day 1, PT: Defect conduction intraventricular", "setting": "[1]; [5]", "result": "0 n (%)"},
      {"measurement": "AESI heart rate and rhythm on Day 1, PT: Electrocardiogram QT prolonged", "setting": "[1]; [5]", "result": "1(0.2) n (%)"},
      {"measurement": "AESI heart rate and rhythm on Day 1, PT: Presyncope", "setting": "[1]; [5]", "result": "1(0.2) n (%)"},
      {"measurement": "AESI heart rate and rhythm on Day 1, PT: Sinus arrhythmia", "setting": "[1]; [5]", "result": "0 n (%)"},
      {"measurement": "AESI heart rate and rhythm on Day 1, PT: Sinus bradycardia", "setting": "[1]; [5]", "result": "0 n (%)"},
      {"measurement": "Treatment-emergent AESI: Infection", "setting": "[1]; only if serious or severe, ponesimod 20 mg N=565, teriflunomide 14 mg N=566, Safety Set", "result": "5(0.9) n (%)"},
      {"measurement": "TEAEs leading to premature discontinuation of study drug: Subjects with at least one AE", "setting": "[1]; [6]", "result": "34(6.0) n (%)"},
      {"measurement": "TEAEs leading to premature discontinuation, SOC: Blood and lymphatic system disorders", "setting": "[1]; [6]", "result": "2(0.4) n (%)"},
      {"measurement": "TEAEs leading to premature discontinuation, SOC: Cardiac disorders", "setting": "[1]; [6]", "result": "2(0.4) n (%)"},
      {"measurement": "TEAEs leading to premature discontinuation, SOC: Eye disorders", "setting": "[1]; [6]", "result": "0 n (%)"},
      {"measurement": "TEAEs leading to premature discontinuation, SOC: Gastrointestinal disorders", "setting": "[1]; [6]", "result": "4(0.7) n (%)"},
      {"measurement": "TEAEs leading to premature discontinuation, SOC: General disorders and administration site conditions", "setting": "[1]; [6]", "result": "2(0.4) n (%)"},
      {"measurement": "TEAEs leading to premature discontinuation, SOC: Hepatobiliary disorders", "setting": "[1]; [6]", "result": "2(0.4) n (%)"},
      {"measurement": "TEAEs leading to premature discontinuation, SOC: Investigations", "setting": "[1]; [6]", "result": "10(1.8) n (%)"},
      {"measurement": "TEAEs leading to premature discontinuation, SOC: Musculoskeletal and connective tissue disorders", "setting": "[1]; [6]", "result": "1(0.2) n (%)"},
      {"measurement": "TEAEs leading to premature discontinuation, SOC: Neoplasms benign, malignant and unspecified (incl cysts and polyps)", "setting": "[1]; [6]", "result": "1(0.2) n (%)"},
      {"measurement": "TEAEs leading to premature discontinuation, SOC: Nervous system disorders", "setting": "[1]; [6]", "result": "4(0.7) n (%)"},
      {"measurement": "TEAEs leading to premature discontinuation, SOC: Pregnancy, puerperium and perinatal conditions", "setting": "[1]; [6]", "result": "3(0.5) n (%)"},
      {"measurement": "TEAEs leading to premature discontinuation, SOC: Psychiatric disorders", "setting": "[1]; [6]", "result": "1(0.2) n (%)"},
      {"measurement": "TEAEs leading to premature discontinuation, SOC: Reproductive system and breast disorders", "setting": "[1]; [6]", "result": "1(0.2) n (%)"},
      {"measurement": "TEAEs leading to premature discontinuation, SOC: Respiratory, thoracic and mediastinal disorders", "setting": "[1]; [6]", "result": "0 n (%)"},
      {"measurement": "TEAEs leading to premature discontinuation, SOC: Skin and subcutaneous tissue disorders", "setting": "[1]; [6]", "result": "2(0.4) n (%)"},
      {"measurement": "TEAEs leading to premature discontinuation, SOC: Social circumstances", "setting": "[1]; [6]", "result": "1(0.2) n (%)"},
      {"measurement": "TEAEs leading to premature discontinuation, SOC: Surgical and medical procedures", "setting": "[1]; [6]", "result": "1(0.2) n (%)"},
      {"measurement": "TEAEs leading to premature discontinuation, SOC: Vascular disorders", "setting": "[1]; [6]", "result": "0 n (%)"},
      {"measurement": "Treatment-emergent AESI: Effect on heart rate and rhythm (including hypotension)", "setting": "[1]; [6]", "result": "24(4.2) n (%)"},
      {"measurement": "Treatment-emergent AESI: Hepatobiliary disorders/Liver enzyme abnormality", "setting": "[1]; [6]", "result": "82(14.5) n (%)"},
      {"measurement": "Treatment-emergent AESI: Herpetic infection", "setting": "[1]; [6]", "result": "27(4.8) n (%)"},
      {"measurement": "Treatment-emergent AESI: Hypertension", "setting": "[1]; [6]", "result": "51(9.0) n (%)"},
      {"measurement": "Treatment-emergent AESI: Macular edema", "setting": "[1]; [6]", "result": "1(0.2) n (%)"},
      {"measurement": "Treatment-emergent AESI: Non-skin malignancy", "setting": "[1]; [6]", "result": "1(0.2) n (%)"},
      {"measurement": "Treatment-emergent AESI: Pulmonary events", "setting": "[1]; [6]", "result": "15(2.7) n (%)"},
      {"measurement": "Treatment-emergent AESI: Seizure", "setting": "[1]; [6]", "result": "1(0.2) n (%)"},
      {"measurement": "Treatment-emergent AESI: Skin malignancy", "setting": "[1]; [6]", "result": "1(0.2) n (%)"},
      {"measurement": "AESI category hepatobiliary disorders/liver enzyme abnormality", "setting": "[1]; [7]", "result": 14.5, "unit": "%"},
      {"measurement": "AESI category hypertension", "setting": "[1]; [7]", "result": 9.0, "unit": "%"},
      {"measurement": "AESI category pulmonary events", "setting": "[1]; [7]", "result": 2.7, "unit": "%"},
      {"measurement": "Proportion of subjects who experienced at least one SAE", "setting": "[1]; [7]", "result": 8.1, "unit": "%"},
      {"measurement": "Proportion of subjects who experienced at least one TEAE", "setting": "[1]; [7]", "result": 88.2, "unit": "%"},
      {"measurement": "TEAE: ALT increased", "setting": "[1]; [7]", "result": 9.4, "unit": "%"},
      {"measurement": "TEAE: headache", "setting": "[1]; [7]", "result": 12.7, "unit": "%"},
      {"measurement": "TEAE: nasopharyngitis", "setting": "[1]; [7]", "result": 16.8, "unit": "%"},
      {"measurement": "TEAE: upper respiratory tract infection", "setting": "[1]; [7]", "result": 10.4, "unit": "%"},
      {"measurement": "TEAEs leading to premature treatment discontinuation", "setting": "[1]; [7]", "result": 6.0, "unit": "%"},
      {"measurement": "Subjects with at least one AE", "setting": "[1]; [8]", "result": "499(88.2) n (%)"},
      {"measurement": "Subjects with at least one AE leading to study drug discontinuation", "setting": "[1]; [8]", "result": "34(6.0) n (%)"},
      {"measurement": "Subjects with at least one Drug-Related AE", "setting": "[1]; [8]", "result": "238(42.0) n (%)"},
      {"measurement": "Subjects with at least one Fatal AE", "setting": "[1]; [8]", "result": "2(0.4) n (%)"},
      {"measurement": "Subjects with at least one Serious AE", "setting": "[1]; [8]", "result": "46(8.1) n (%)"},
      {"measurement": "Subjects with at least one Severe AE", "setting": "[1]; [8]", "result": "26(4.6) n (%)"},
      {"measurement": "Mean heart rate reduction compared to pre-dose (maximum)", "setting": "[2]; Day 1, 2 hours post dose, 12-lead ECG", "result": "−1.7", "unit": "bpm"},
      {"measurement": "Subjects with asymptomatic post-dose HR≤40 bpm", "setting": "[2]; Day 1, all had pre-treatment HR <55 bpm", "result": "none"},
      {"measurement": "Subjects discontinued due to AEs or tolerability related reasons", "setting": "[3]", "result": 2.5, "unit": "%"},
      {"measurement": "Average change in scaled ventricular volume from baseline (Δ60V), percentage of ICV", "setting": "[4]; week 60", "result": 0.065, "unit": "%"},
      {"measurement": "Average change in scaled ventricular volume from baseline (Δ108V), percentage of ICV", "setting": "[4]; week 108", "result": 0.124, "unit": "%"}
    ]}
  ]
}
